{
  "source": "patent US9296687B2",
  "about": "“Modulators of HSP70/DnaK function and methods of use thereof” (The Trustees of the University of Pennsylvania, priority 2008, dated 2016)",
  "key": {"[1]": {"system": "H1299 and FaDu; 6113 and WI38", "assay": "MTT assay, tumorogenic versus normal fibroblast cell lines", "type": "cell-based, human", "settings": "various concentrations, 48 hours", "protocol": "H1299 cells were seeded on […] and treated with 10 μM PES or 10 μM PES-Cl. DMSO treated cells were used as a control and the proliferation of the H1299 cells was observed over 24 and 48 hours of treatment. The cells were imaged by light microscopy with 20× magnification (FIG. 28). Non-tumorogenic and tumorogenic cells were then treated with PES-Cl to observe its toxicity and effect on proliferation. Two tumorogenic cell lines (H1299 and FaDu) and two normal fibroblast cell lines (6113 and WI38) were seeded on a 96-well plate. The cells were treated with various concentrations of PES and PES-Cl. Forty-eight hours post-treatment MTT assays (Cayman Chemical Company) were performed (FIG. 29)."}, "EGFR, HER2/ErbB2, AKT": {"system": "EGFR, HER2/ErbB2, AKT", "assay": "Western blot of HSP70/HSP90 client proteins in detergent-soluble and detergent-insoluble fractions", "type": "cell-based, human", "protocol": "FIG. 17. PES impairs the proteasome system. (A) Cell-based 20S proteasome activity assay of H1299 or A875 human tumor cells treated with DMSO, 20 μM PES, 100 nM Velcade (proteasome inhibitor), 1 μM 17-AAG (HSP90 inhibitor), 5 μM CQ (lysosome inhibitor), or 20S proteasome inhibitor epigallocatechin gallate (EGCG). Each graphical representation indicates the mean±SD of at least three independent cultures relative to control (DMSO-treated) cells. (B) Cell extracts from SKBR3 human breast carcinoma cells, treated either with 20 μM PES or 1 μM 17-AAG for 24 h, were immunoprecipitated (IP) using anti-HSP70 or anti-HSP90 antibody. […] MTT assays of MCF7 human breast carcinoma cells pretreated with DMSO, or 5 μM PES for 1 h, followed by the addition of indicated amount of 17-AAG for 47 h. The results represent the mean±SD of at least three independent analysis of cultures relative to control (DMSO-treated) cells. (D and E) H1299 cells (D) or SKBR3 cells (E) were treated with DMSO, 20 μM PES, 17-AAG, or 17-AAG plus bortezomib (Velcade) as indicated; harvested in 1% NP-40 containing lysis buffer; fractionated into detergent-soluble and detergent-insoluble preparations; and assayed by western blot.\nFIG. 18. Accumulation of HSP90 client proteins in the protein detergent-insoluble fraction following PES. (A) SKOV3 cells were treated with DMSO, 10 μM PES, or 20 μM PES for 24 h. Note the marked accumulation of EGFR, HER2/ErbB2, and AKT in the detergent-insoluble fraction following 20 μM PES treatment. (B and C) SKOV3 (B) or SKBR3 (C) cells were treated with DMSO, 20 μM PES, or 1 μM 17-AAG, as indicated, for 24 h. Cells were harvested in 1% NP-40 containing lysis buffer, fractionated into detergent-soluble and detergent-insoluble preparations, and assayed by western blot for the proteins indicated.\nThe HSP70 and HSC70 proteins bind to exposed hydrophobic regions of nascent-, translocating-, misfolded- or partially unfolded-proteins. These ATP-dependent molecular chaperones act in multi-protein complexes in conjunction with one or more regulatory co-chaperones to carry out multiple cellular functions. […] This is illustrated for H1299 cells treated with 10 or 20 μM PES for 24 h. […] This correlates with a reduced abundance of complexes containing HSP70, or HSC70, together with client proteins or co-chaperones (FIGS. 19A and 19B). […] However, since HSP70/HSC70 act as critical co-chaperones for HSP90, for example in client protein recruitment, PES-mediated alteration in the function of the 70-kDa molecular chaperones could be reflected in an altered behavior or expression of many client proteins. To test this idea, we examined the expression of a few well-established HSP90 client proteins, including the transmembrane tyrosine kinase receptors EGFR and HER2/ERBB2, and the downstream signaling factor AKT. These proteins are overexpressed, or aberrantly expressed, in a variety of human tumors, and have been implicated in cancer etiology and pathology. As a control for these studies, we compared the effects of PES to that of the well-established HSP90 inhibitor, 17-allylamino-17-demethoxygeldanamycin (17-AAG). 17-AAG interacts with the N-terminal region of HSP90 and inhibits its ATPase activity; this disrupts interactions of HSP90 with client proteins and leads to client-protein degradation via the ubiquitin-proteasome pathway (Whitesell, et al. 2005; Neckers, et al. 2007). To examine the expression of some HSP70/HSP90 clients, we used western blot analysis of detergent-soluble (clarified) whole cell extracts."}, "U2OS cells": {"system": "U2OS cells", "assay": "Long-lived protein degradation assay", "type": "cell-based, human", "settings": "20 μM", "protocol": "The long-lived protein degradation assays were performed as described (Humbey et al., 2008; Pimkina et al., 2008), but with the following modifications. The cells were seeded at 30% confluency. The cells were then labeled at 37° C. for 14 h in L-valine-free medium supplemented with dialyzed FBS medium containing 0.2 mCi/ml of L-[^14C]valine (Amersham Pharmacia). After the radiolabeling period, unincorporated radioisotope was removed by three rinses with PBS (pH 7.4). Cells were then incubated at 37° C. in fresh complete media [Dulbecco's modified Eagle's medium (DMEM), 10% fetal bovine serum (FBS), 1% penicillin-streptomycin (PS)] containing 2 mM unlabeled valine for 10 h to allow the degradation of labeled short-lived proteins. Cells were then rinsed 3 times with PBS (pH 7.4), and grown in fresh complete media [DMEM, 10% FBS, 1% PS] containing either DMSO or 20 μM PES. Aliquots of the media (0.2 ml in duplicate) were taken at 0 h, 4 h, 8 h, 24 h, and 48 h and mixed with 0.2 ml of 1% bovine serum albumin and 0.4 ml of 40% trichloroacetic acid (v/v). […] Radioactivity in the aliquots was measured on a Beckman liquid scintillation system. The percentage of long-lived protein degraded was obtained by the formula % degradation=(^14C counts at timepoint/sum of ^14C counts at each time point+total cell-associated radioactivity)×100."}, "caspase-3, caspase-8": {"system": "caspase-3, caspase-8", "assay": "Western blot for caspase cleavage", "type": "cell-based, human"}, "20S proteasome": {"system": "20S proteasome", "assay": "Cell-based 20S proteasome activity assay", "parameters": "species or system human", "settings": "H1299 or A875 cells; PES 20 μM, 17-AAG 1 μM, CQ 5 μM"}},
  "data": [
    {"smiles": "NS(=O)(=O)C#Cc1ccccc1", "note": "[PES, 2-Phenylethynesulfonamide]", "values": [
      {"measurement": "cell survival, tumorogenic versus non-tumorogenic cells", "setting": "[1]", "value": "greater concentration dependent effect on cell survival in tumorogenic cells"},
      {"measurement": "EGFR, HER2/ErbB2 and AKT in the detergent-insoluble fraction", "setting": "EGFR, HER2/ErbB2, AKT; 20 μM, 24 h", "value": "increased abundance of EGFR, HER2/ErbB2, and AKT in the detergent-insoluble fraction"},
      {"measurement": "expression of integrin β1 and CHIP", "setting": "EGFR, HER2/ErbB2, AKT; H1299 cells, 20 μM, 24 h", "value": "lower expression levels"},
      {"measurement": "overall cellular abundance of EGFR, HER2/ErbB2 and AKT", "setting": "EGFR, HER2/ErbB2, AKT; SKBR3 cells, detergent-soluble extracts, 24 h", "value": "reduction in the overall cellular abundance"},
      {"measurement": "other cellular proteins in the detergent-insoluble fraction", "setting": "EGFR, HER2/ErbB2, AKT; SKBR3 or SKOV3 cells", "value": "many of the proteins examined accumulate in the detergent-insoluble fraction"},
      {"measurement": "basal degradation of long-lived proteins", "setting": "U2OS cells", "value": "significantly reduced"},
      {"measurement": "cleavage of caspase-3, caspase-8 or PARP", "setting": "caspase-3, caspase-8; PES 20 μM alone", "value": "not accompanied by cleavage of caspase-3, caspase-8, or PARP"},
      {"measurement": "caspase-cleavage products after cisplatin", "setting": "caspase-3, caspase-8; co-treatment with cisplatin", "value": "effectively inhibited the appearance of these caspase-cleavage products"},
      {"measurement": "activity of the 20S proteasome", "setting": "20S proteasome", "value": "impairs the activity of the 20S proteasome"}
    ]}
  ]
}
